What was measured:
ED-40515(−) = experiment: Effect of CXCR4 antagonist on in vivo growth of ED-40515(−) tumor in NOG mice; details: 7.5×10^7 cells inoculated, KRH-1636 0.14 mg/mouse intraperitoneally every day, 15 days
Procedure: (§1) Using 3 samples of HTLV-1 leukemia derived cell lines [L=Leukemic cell lines: ED-40515(−), MT-1 and TL-Oml], 6 samples of HTLV-1 infected cell lines [IT=infected transformed cell lines: SLB-1, M8116, HUT-102, MT-2, MT-4 and TY9-31MT], 10^7-8 cells/0.5 mL were transplanted to NOG mice and NOD/Shi-scid mice subcutaneously at a left posterior auricle thereof, and to some of them subcutaneously at a gluteal region thereof. Then, the tumor size in the mice, tissue image, and the mice with, and those without, leukemia were chronologically compared for examination, and the relations between these and transcription factors such as NFkB or fluctuation of Tax protein were also analyzed.
(§2) Assuming that effective tumor formation by 10^7 of ED-40515(−) in NOG mice was attributable to active neogenesis of tumoral vessels via CXCR4 of tumor cells, it has been expected that tumor formation would be inhibited as long as there was continuous administration of KRH-1636, a competitive agent of SDF-1 which was a ligand thereof in endothelial cells. However, in the case of ED-40515(−) and SLB-1 (histologically angiotropic) accompanied by bleeding, the mice formed tumors with sizes of 25×18×12 mm and 20×10×18 mm equivalent to those of non-treated group, even though KRH-1636 was intraperitoneally administered every day.

SLB-1 = experiment: Effect of CXCR4 antagonist on in vivo growth of SLB-1 tumor in NOG mice; details: 7.5×10^7 cells inoculated, KRH-1636 0.14 mg/mouse intraperitoneally every day, 15 days
Procedure: as §1, §2

C[C@H](NC(=O)[C@H](CCCN=C(N)N)NC(=O)c1ccc(CNCc2ccccn2)cc1)c1cccc2ccccc12 [KRH-1636]
Remarks (tumor) (ED-40515(−)): progressive large tumor | Remarks (tumor) (SLB-1): progressive large tumor
